Assays:
[1] = tested on: HAP1 MTAP-deleted cell line; assay: SDMA in-cell western assay, HAP1 MTAP-deleted; format: cell-based; conditions: for IC50: Homo sapiens, HAP1, SDMA in-cell western, HAP1 MTAP-deleted, read-out: HAP1 MTAP deleted IC50; for MTAP intact/deleted ratio: IC50 ratio HAP1 MTAP-intact / HAP1 MTAP-deleted, SDMA in-cell western
Procedure, shortened: (§1)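 Readout: in-cell western detection of SDMA. Cells: HAP1 expressing endogenous MTAP and an MTAP-null HAP1 counterpart. Output: IC50.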

[2] = tested on: HAP1 MTAP-intact cell line; assay: SDMA in-cell western assay, HAP1 MTAP-intact; format: cell-based; conditions: Homo sapiens, HAP1, SDMA in-cell western, HAP1 MTAP-intact; read-out: MTAP HAP1 intact IC50
Procedure, shortened: as §1

[3] = molecular target: T1, PRMT5 (Homo sapiens, UniProt O14744); assay: PRMT5 biochemical IC50 assay with SAM as cofactor; conditions: PRMT5, SAM as cofactor; read-out: SAM IC50
T1 construct: purchased Viva (custom protein)

[4] = molecular target: T1, PRMT5; assay: PRMT5 biochemical IC50 assay with no cofactor; conditions: PRMT5, no cofactor; read-out: No Cofactor/rel IC50
Text: Table 1 indicates IC50 values (μM) against PRMT5 for exemplary compounds in the presence of SAM as cofactor, with no cofactor, and with MTA as cofactor, respectively (columns 4-6). […] Ki values can be calculated from the IC50 values as described in the Examples section. As detailed in the Examples section, for the assay performed in the presence of SAM, IC50=Ki×1.5 (Ki=IC50/1.5).

[5] = tested on: HAP1 MTAP-deleted cell line; assay: Viability assay, MTAP-deleted cell line; format: cell-based; conditions: Homo sapiens, HAP1, viability assay, MTAP-deleted cell line; read-out: HAP1 MTAP deleted viability
Text: Table 1 additionally indicates IC50 values in a viability assay for the MTAP-deleted cell line (column 10), indicating the effect of treatment with compound on cell survival.

[6] = molecular target: T1, PRMT5; assay: PRMT5 biochemical IC50 assay with MTA as cofactor; conditions: PRMT5, MTA as cofactor; read-out: MTA IC50

T1 sequence (O14744 whole entry): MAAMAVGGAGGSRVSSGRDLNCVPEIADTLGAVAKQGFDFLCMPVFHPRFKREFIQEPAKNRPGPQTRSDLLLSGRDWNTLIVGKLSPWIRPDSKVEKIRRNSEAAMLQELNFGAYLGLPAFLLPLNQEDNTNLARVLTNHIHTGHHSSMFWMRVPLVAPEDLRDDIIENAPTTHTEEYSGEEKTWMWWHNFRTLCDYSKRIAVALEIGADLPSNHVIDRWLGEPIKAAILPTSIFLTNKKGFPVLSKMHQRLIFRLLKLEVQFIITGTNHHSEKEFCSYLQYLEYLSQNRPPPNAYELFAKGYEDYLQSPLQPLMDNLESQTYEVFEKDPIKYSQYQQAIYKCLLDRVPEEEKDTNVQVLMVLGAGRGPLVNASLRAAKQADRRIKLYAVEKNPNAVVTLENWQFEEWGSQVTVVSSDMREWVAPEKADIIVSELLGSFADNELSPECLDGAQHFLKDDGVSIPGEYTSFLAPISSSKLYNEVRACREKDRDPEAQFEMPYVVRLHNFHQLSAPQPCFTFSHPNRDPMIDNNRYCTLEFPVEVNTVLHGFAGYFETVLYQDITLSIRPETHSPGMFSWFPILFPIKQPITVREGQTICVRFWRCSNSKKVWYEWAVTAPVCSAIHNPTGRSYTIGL
T1 sequence (Q9BQA1 whole entry partner): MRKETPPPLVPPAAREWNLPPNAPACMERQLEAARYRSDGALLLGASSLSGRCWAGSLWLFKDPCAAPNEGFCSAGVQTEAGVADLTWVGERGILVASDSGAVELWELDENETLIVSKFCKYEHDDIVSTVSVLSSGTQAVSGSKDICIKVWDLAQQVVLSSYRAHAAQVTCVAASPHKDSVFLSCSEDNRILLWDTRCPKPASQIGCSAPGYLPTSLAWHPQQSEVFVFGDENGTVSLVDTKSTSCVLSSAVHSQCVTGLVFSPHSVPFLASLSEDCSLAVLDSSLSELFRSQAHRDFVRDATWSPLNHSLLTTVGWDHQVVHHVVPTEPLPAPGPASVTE

| Structure (SMILES) | IC50 [1] [nM] | MTAP intact/deleted ratio [1] | IC50 [2] [nM] | IC50 [3] [nM] | IC50 [4] [nM] | IC50 [5] [nM] | IC50 [6] [nM] |
| --- | --- | --- | --- | --- | --- | --- | --- |
| C[C@@H]1CC[C@@H](c2ccc(F)c(C(F)(F)F)c2)N(C(=O)C(=O)Nc2cncc(C(N)=O)c2)C1 (racemic) [Compound 255, rac-5-{2-[(2R,5S)-2-[4-Fluoro-3-(trifluoromethyl)phenyl]-5-methylpiperidin-1-yl]-2-oxoacetamido}pyridine-3-carboxamide] | 100 to 1000 | A (an IC50 ratio greater than or equal to 10 fold) | > 1000 | 50 to 500 | 50 to 500 | 1000 to 10000 | < 50 |
| C[C@@H]1CC[C@@H](c2ccc(-n3cccn3)cc2)N(C(=O)C(=O)Nc2cncc(C(N)=O)c2)C1 (racemic) [Compound 256, rac-5-{2-[(2R,5S)-5-Methyl-2-[4-(1H-pyrazol-1-yl)phenyl]piperidin-1-yl]-2-oxoacetamido}pyridine-3-carboxamide] | < 100 | A (an IC50 ratio greater than or equal to 10 fold) | > 1000 | 50 to 500 | 50 to 500 | 1000 to 10000 | < 50 |
| C[C@@H]1CC[C@@H](c2cnc3ccccc3c2)N(C(=O)C(=O)Nc2cncc(C(N)=O)c2)C1 (racemic) [Compound 257, rac-5-{2-[(2R,5S)-5-Methyl-2-(quinolin-3-yl)piperidin-1-yl]-2-oxoacetamido}pyridine-3-carboxamide] | > 1000 | B (an IC50 ratio greater than or equal to 3 fold but lower than 10 fold) | > 1000 | > 500 | > 500 | > 10000 | 50 to 500 |
| C[C@@H]1CC[C@@H](c2ccc(C3(O)CCC3)cc2)N(C(=O)C(=O)Nc2cncc(C(N)=O)c2)C1 (racemic) [Compound 259, rac-5-{2-[(2R,5S)-2-[4-(1-Hydroxycyclobutyl)phenyl]-5-methylpiperidin-1-yl]-2-oxoacetamido}pyridine-3-carboxamide] | 100 to 1000 | A (an IC50 ratio greater than or equal to 10 fold) | > 1000 | 50 to 500 | 50 to 500 | > 10000 | 50 to 500 |
| C[C@@H]1CC[C@@H](c2cccc(C3CCC3)c2)N(C(=O)C(=O)Nc2cncc(C(N)=O)c2)C1 (racemic) [Compound 261, rac-5-{2-[(2R,5S)-2-(3-Cyclobutylphenyl)-5-methylpiperidin-1-yl]-2-oxoacetamido}pyridine-3-carboxamide] | < 100 | A (an IC50 ratio greater than or equal to 10 fold) | > 1000 | 50 to 500 | 50 to 500 | 1000 to 10000 | < 50 |
| C[C@@H]1CC[C@@H](c2ccc(F)c(F)c2)N(C(=O)C(=O)Nc2cncc(C(N)=O)c2)C1 (racemic) [Compound 263, rac-5-{2-[(2R,5S)-2-(3,4-Difluorophenyl)-5-methylpiperidin-1-yl]-2-oxoacetamido}pyridine-3-carboxamide] | 100 to 1000 | A (an IC50 ratio greater than or equal to 10 fold) | > 1000 | 50 to 500 | 50 to 500 | 1000 to 10000 | < 50 |
| C[C@@H]1CC[C@@H](c2ccc(OC3CCOC3)cc2)N(C(=O)C(=O)Nc2cncc(C(N)=O)c2)C1 (mixture of isomers) [Compound 264, rac-5-{2-[(2R,5S)-5-Methyl-2-[4-(oxolan-3-yloxy)phenyl]piperidin-1-yl]-2-oxoacetamido}pyridine-3-carboxamide] | < 100 | A (an IC50 ratio greater than or equal to 10 fold) | > 1000 | 50 to 500 | 50 to 500 | 1000 to 10000 | 50 to 500 |
| C[C@@H]1CC[C@@H](c2cccc(C(F)(F)F)c2)N(C(=O)C(=O)Nc2cncc(C(N)=O)c2)C1 (racemic) [Compound 265, rac-5-{2-[(2R,5S)-5-Methyl-2-[3-(trifluoromethyl)phenyl]piperidin-1-yl]-2-oxoacetamido}pyridine-3-carboxamide] | 100 to 1000 | A (an IC50 ratio greater than or equal to 10 fold) | > 1000 | 50 to 500 | 50 to 500 | 1000 to 10000 | < 50 |
| NC(=O)c1cncc(NC(=O)C(=O)N2C[C@@H](CO)CC[C@@H]2c2ccccc2)c1 (racemic) [Compound 266, 5-(2-(5-(hydroxymethyl)-2-phenylpiperidin-1-yl)-2-oxoacetamido)nicotinamide] | 100 to 1000 | A (an IC50 ratio greater than or equal to 10 fold) | > 1000 | 50 to 500 | > 500 | > 10000 | 50 to 500 |
| C[C@@H]1CC[C@@H](c2cccc(C(F)F)c2)N(C(=O)C(=O)Nc2cncc(C(N)=O)c2)C1 (racemic) [Compound 268, rac-5-{2-[(2R,5S)-2-[3-(Difluoromethyl)phenyl]-5-methylpiperidin-1-yl]-2-oxoacetamido}pyridine-3-carboxamide] | 100 to 1000 | A (an IC50 ratio greater than or equal to 10 fold) | > 1000 | 50 to 500 | 50 to 500 | 1000 to 10000 | < 50 |
| C[C@@H]1CC[C@@H](c2ccc3c(c2)OCO3)N(C(=O)C(=O)Nc2cncc(C(N)=O)c2)C1 (racemic) [Compound 270, rac-5-{2-[(2R,5S)-2-(1,3-Dioxaindan-5-yl)-5-methylpiperidin-1-yl]-2-oxoacetamido}pyridine-3-carboxamide] | < 100 | A (an IC50 ratio greater than or equal to 10 fold) | > 1000 | 50 to 500 | 50 to 500 | 1000 to 10000 | < 50 |
| C[C@@H]1CC[C@@H](c2ccc(OC(F)F)cc2)N(C(=O)C(=O)Nc2cncc(C(N)=O)c2)C1 (racemic) [Compound 271, rac-5-{2-[(2R,5S)-2-[4-(Difluoromethoxy)phenyl]-5-methylpiperidin-1-yl]-2-oxoacetamido}pyridine-3-carboxamide] | 100 to 1000 | A (an IC50 ratio greater than or equal to 10 fold) | > 1000 | 50 to 500 | 50 to 500 | 1000 to 10000 | < 50 |
| C[C@@H]1CC[C@@H](c2ccc3nncn3c2)N(C(=O)C(=O)Nc2cncc(C(N)=O)c2)C1 (racemic) [Compound 272, rac-5-{2-[(2R,5S)-5-Methyl-2-{[1,2,4]triazolo[4,3-a]pyridin-6-yl}piperidin-1-yl]-2-oxoacetamido}pyridine-3-carboxamide] | > 1000 | C (an IC50 ratio of less than 3 fold) | > 1000 | 50 to 500 | 50 to 500 | > 10000 | 50 to 500 |
| C[C@@H]1CC[C@@H](c2ccc(CC3CC3)cc2)N(C(=O)C(=O)Nc2cncc(C(N)=O)c2)C1 (racemic) [Compound 273, rac-5-{2-[(2R,5S)-2-[4-(Cyclopropylmethyl)phenyl]-5-methylpiperidin-1-yl]-2-oxoacetamido}pyridine-3-carboxamide] | 100 to 1000 | A (an IC50 ratio greater than or equal to 10 fold) | > 1000 | 50 to 500 | 50 to 500 | 1000 to 10000 | < 50 |
| C[C@@H]1CC[C@@H](c2ccc(F)nc2)N(C(=O)C(=O)Nc2cncc(C(N)=O)c2)C1 (racemic) [Compound 276, rac-5-{2-[(2R,5S)-2-(6-Fluoropyridin-3-yl)-5-methylpiperidin-1-yl]-2-oxoacetamido}pyridine-3-carboxamide] | 100 to 1000 | A (an IC50 ratio greater than or equal to 10 fold) | > 1000 | 50 to 500 | 50 to 500 | > 10000 | < 50 |
| C[C@@H]1CC[C@@H](c2ccc3c(c2)CCC3)N(C(=O)C(=O)Nc2cncc(C(N)=O)c2)C1 (racemic) [Compound 277, rac-5-{2-[(2R,5S)-2-(2,3-Dihydro-1H-inden-5-yl)-5-methylpiperidin-1-yl]-2-oxoacetamido}pyridine-3-carboxamide] | 100 to 1000 | A (an IC50 ratio greater than or equal to 10 fold) | > 1000 | 50 to 500 | 50 to 500 | 1000 to 10000 | < 50 |
| C[C@@H]1CC[C@@H](c2cccc(OC(F)(F)F)c2)N(C(=O)C(=O)Nc2cncc(C(N)=O)c2)C1 (racemic) [Compound 279, rac-5-{2-[(2R,5S)-5-Methyl-2-[3-(trifluoromethoxy)phenyl]piperidin-1-yl]-2-oxoacetamido}pyridine-3-carboxamide] | 100 to 1000 | A (an IC50 ratio greater than or equal to 10 fold) | > 1000 | 50 to 500 | 50 to 500 | 1000 to 10000 | < 50 |

Source: US11999727B2 (Tango Therapeutics, Inc., priority 2020, dated 2024)
